Source: PubChem BioAssay AID248 (DTP/NCI, 2004)
Toxic doses and inconclusive results are not listed. Rule as the data show it: active = T/C of 150% or more; inactive = T/C below 125%.

Tested on: L1210 leukemia ip in BDF1 mice, survival T/C
Assay: NCI In Vivo Anticancer Drug Screen. Data for tumor model L1210 Leukemia (intraperitoneal) in B6D2F1 (BDF1) mice
Conditions: endpoint: mean survival time, higher = longer survival
Summary of the method: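 Value reflects the ratio of survival in compound-treated mice to survival in vehicle-treated controls, with both groups carrying the same transplanted tumor.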

[1] = dose: 100.0 mg/kg/injection, schedule: Q01DX001 (ip), vehicle: saline
[2] = dose: 200.0 mg/kg/injection, schedule: Q01DX001 (ip), vehicle: saline
[3] = dose: 100.0 mg/kg/injection, schedule: Q04DX003 (ip), vehicle: saline
[4] = dose: 200.0 mg/kg/injection, schedule: Q04DX003 (ip), vehicle: saline
[5] = dose: 400.0 mg/kg/injection, schedule: Q04DX003 (ip), vehicle: saline
[6] = dose: 50.0 mg/kg/injection, schedule: Q01DX009 (ip), vehicle: saline with Tween-80
[7] = dose: 100.0 mg/kg/injection, schedule: Q01DX009 (ip), vehicle: saline with Tween-80
[8] = dose: 100.0 mg/kg/injection, schedule: Q04DX003 (ip), vehicle: saline with Tween-80
[9] = dose: 200.0 mg/kg/injection, schedule: Q01DX009 (ip), vehicle: saline with Tween-80
[10] = dose: 200.0 mg/kg/injection, schedule: Q04DX003 (ip), vehicle: saline with Tween-80
[11] = dose: 400.0 mg/kg/injection, schedule: Q01DX009 (ip), vehicle: saline with Tween-80
[12] = dose: 400.0 mg/kg/injection, schedule: Q04DX003 (ip), vehicle: saline with Tween-80

Measured: T/C

CC(O)C1(O)C(O)CC(OC2c3cc4c(c(O)c3[C@@H]3C[C@@]2(C)OC32C=c3cc[nH]c3=N2)C(=O)c2cccc(O)c2C4=O)OC1C (some centres undefined)
inactive: dose: 0.5 mg/kg/injection, schedule: Q01DX009 (ip), vehicle: saline with Tween-80 101 % of control | dose: 1.0 mg/kg/injection, schedule: Q01DX009 (ip), vehicle: saline with Tween-80 101 % of control | dose: 2.0 mg/kg/injection, schedule: Q01DX009 (ip), vehicle: saline with Tween-80 105 % of control | dose: 2.0 mg/kg/injection, schedule: Q01DX009 (ip), vehicle: saline 112 % of control | dose: 4.0 mg/kg/injection, schedule: Q01DX009 (ip), vehicle: saline with Tween-80 110 % of control | dose: 4.0 mg/kg/injection, schedule: Q01DX009 (ip), vehicle: saline 109 % of control | dose: 8.0 mg/kg/injection, schedule: Q01DX009 (ip), vehicle: saline with Tween-80 103 % of control | dose: 8.0 mg/kg/injection, schedule: Q01DX009 (ip), vehicle: saline 106 % of control | dose: 16.0 mg/kg/injection, schedule: Q01DX009 (ip), vehicle: saline 121 % of control | dose: 32.0 mg/kg/injection, schedule: Q01DX009 (ip), vehicle: saline 104 % of control

Cc1cc2c([N+](=O)[O-])c3ccc(Cl)nn3c2n[n+]1[O-]
inactive: dose: 62.5 mg/kg/injection, schedule: Q04DX002 (ip), vehicle: Klucel (hydroxypropylcellulose) (HPC) 106 % of control | dose: 125.0 mg/kg/injection, schedule: Q04DX002 (ip), vehicle: Klucel (hydroxypropylcellulose) (HPC) 114 % of control | dose: 250.0 mg/kg/injection, schedule: Q04DX002 (ip), vehicle: Klucel (hydroxypropylcellulose) (HPC) 95 % of control

O=C(Nc1ccc(S(=O)(=O)NC2CCCCC2)cc1)Oc1ccc([N+](=O)[O-])cc1
inactive: [1] 96 % of control | [2] 100 % of control | dose: 400.0 mg/kg/injection, schedule: Q01DX001 (ip), vehicle: saline 100 % of control

CC(C(N)=O)N1C(=O)C2C3CCC(C3)C2C1=O (centres undefined)
inactive: [3] 103 % of control | [4] 91 % of control | [5] 86 % of control

CC(C)CCCC(C)C1CCC2C3CCC4CC(I)CCC4(C)C3CCC12C (centres undefined)
inactive: dose: 100.0 mg/kg/injection, schedule: Q01DX001 (ip), vehicle: saline with Tween-80 93 % of control | dose: 200.0 mg/kg/injection, schedule: Q01DX001 (ip), vehicle: saline with Tween-80 95 % of control | dose: 400.0 mg/kg/injection, schedule: Q01DX001 (ip), vehicle: saline with Tween-80 90 % of control

O=S1(=O)C2CCC(C2)C1Cl (centres undefined)
inactive: dose: 25.0 mg/kg/injection, schedule: Q01DX009 (ip), vehicle: saline with Tween-80 102 % of control | [6] 101 % of control

CC1(C#N)CCc2c(ccc3ccccc23)C1=O (centres undefined)
inactive: dose: 100.0 mg/kg/injection, schedule: Q01DX009 (ip), vehicle: saline 95 % of control | [3] 96 % of control | dose: 200.0 mg/kg/injection, schedule: Q01DX009 (ip), vehicle: saline 95 % of control | [4] 94 % of control | [5] 101 % of control

O=C(Nc1ccc([N+](=O)[O-])cc1)Nc1ccc([N+](=O)[O-])cc1
inactive: dose: 100.0 mg/kg/injection, schedule: Q01DX009 (ip), vehicle: Klucel (hydroxypropylcellulose) (HPC) 93 % of control | dose: 100.0 mg/kg/injection, schedule: Q01DX009 (ip), vehicle: saline sonified 109 % of control | [7] 109 % of control | dose: 100.0 mg/kg/injection, schedule: Q04DX002 (ip), vehicle: Klucel (hydroxypropylcellulose) (HPC) 101 % of control | dose: 100.0 mg/kg/injection, schedule: Q04DX003 (ip), vehicle: Klucel (hydroxypropylcellulose) (HPC) 104 % of control | dose: 100.0 mg/kg/injection, schedule: Q04DX003 (ip), vehicle: saline sonified 96 % of control | [8] 100 % of control | dose: 200.0 mg/kg/injection, schedule: Q01DX009 (ip), vehicle: Klucel (hydroxypropylcellulose) (HPC) 94 % of control | dose: 200.0 mg/kg/injection, schedule: Q01DX009 (ip), vehicle: saline sonified 110 % of control | [9] 90 % of control | dose: 200.0 mg/kg/injection, schedule: Q04DX002 (ip), vehicle: Klucel (hydroxypropylcellulose) (HPC) 90 % of control | dose: 200.0 mg/kg/injection, schedule: Q04DX003 (ip), vehicle: Klucel (hydroxypropylcellulose) (HPC) 104 % of control | dose: 200.0 mg/kg/injection, schedule: Q04DX003 (ip), vehicle: saline sonified 91 % of control | [10] 102 % of control | dose: 400.0 mg/kg/injection, schedule: Q01DX009 (ip), vehicle: Klucel (hydroxypropylcellulose) (HPC) 88 % of control | dose: 400.0 mg/kg/injection, schedule: Q01DX009 (ip), vehicle: saline sonified 98 % of control | [11] 86 % of control | dose: 400.0 mg/kg/injection, schedule: Q04DX002 (ip), vehicle: Klucel (hydroxypropylcellulose) (HPC) 97 % of control | dose: 400.0 mg/kg/injection, schedule: Q04DX003 (ip), vehicle: Klucel (hydroxypropylcellulose) (HPC) 98 % of control | dose: 400.0 mg/kg/injection, schedule: Q04DX003 (ip), vehicle: saline sonified 93 % of control | [12] 97 % of control

OCC(O)C(O)C(O)C(O)CN=Cc1ccccc1O (centres undefined)
inactive: dose: 100.0 mg/kg/injection, schedule: Q04DX002 (ip), vehicle: saline with Tween-80 109 % of control | dose: 200.0 mg/kg/injection, schedule: Q04DX002 (ip), vehicle: saline with Tween-80 95 % of control | dose: 400.0 mg/kg/injection, schedule: Q04DX002 (ip), vehicle: saline with Tween-80 103 % of control

CCOC(=O)CNC(=O)CBr
inactive: dose: 10.0 mg/kg/injection, schedule: Q01DX Z (ip), vehicle: other 103 % of control | dose: 20.0 mg/kg/injection, schedule: Q01DX Z (ip), vehicle: other 91 % of control

CCN(CC)CC#CCN(CC)CC
inactive: [6] 92 % of control | [7] 97 % of control | [8] 102 % of control | [10] 90 % of control

c1ccc(C(c2cccc3ccccc23)N2CCCCC2)cc1 (centres undefined)
inactive: [7] 94 % of control | [8] 108 % of control | [9] 97 % of control | [10] 96 % of control | [11] 95 % of control | [12] 102 % of control

Cc1cc(C)c(O)c(CN(C)C)c1
inactive: [8] 101 % of control | [10] 98 % of control

COc1ccc(N(C)CC(O)CN)cc1 (centres undefined)
inactive: [1] 108 % of control | [2] 104 % of control

O=C(Nc1cccc(-c2nc3ccccc3[nH]2)c1)c1ccc(C(=O)Nc2cccc(-c3nc4ccccc4[nH]3)c2)cc1
inactive: dose: 15.0 mg/kg/injection, schedule: Q01DX Z (ip), vehicle: carboxymethylcellulose (CMC) 91 % of control | dose: 30.0 mg/kg/injection, schedule: Q01DX Z (ip), vehicle: carboxymethylcellulose (CMC) 90 % of control | dose: 60.0 mg/kg/injection, schedule: Q01DX Z (ip), vehicle: carboxymethylcellulose (CMC) 87 % of control | dose: 120.0 mg/kg/injection, schedule: Q01DX Z (ip), vehicle: carboxymethylcellulose (CMC) 86 % of control | dose: 125.0 mg/kg/injection, schedule: Q01DX Z (ip), vehicle: water 95 % of control | dose: 250.0 mg/kg/injection, schedule: Q01DX Z (ip), vehicle: water 96 % of control | dose: 500.0 mg/kg/injection, schedule: Q01DX Z (ip), vehicle: water 112 % of control

Cc1cc(C(=O)C(C#N)=Nc2ccc(N(C)C)cc2)c(CN2C(=O)c3ccccc3C2=O)c(=O)n1C
inactive: dose: 100.0 mg/kg/injection, schedule: Q01DX001 (ip), vehicle: water 92 % of control | dose: 200.0 mg/kg/injection, schedule: Q01DX001 (ip), vehicle: water 94 % of control | dose: 400.0 mg/kg/injection, schedule: Q01DX001 (ip), vehicle: water 94 % of control
